Laboratory results taken from patent US7795300B2, “External preparation for skin” (Kuraray Co., Ltd., priority 2003, dated 2010).
Read-outs that look alike come from different tables or passages of the source.

Legend:
melanoma B-16 cells = assay type: cell-based; settings: 48 hours
Procedure: The effect of the combination of a compound (A) and 4-n-butyl resorcinol was studied using melanoma B-16 cells (obtained from Tomita Laboratory at Tohoku University, School of Medicine). MEM (modified Eagle's medium) supplemented with 15% FBS (fetal bovine serum) to which Compound 1 (centaureidin) and 4-butyl resorcinol at various concentrations were added was placed in each well of a microtiter plate. Melanoma B-16 cells were seeded into each well at a dose of 5×10^5 cells/ml and cultured for 48 hours. The cells were collected by means of centrifugal separation and washed twice with the medium, and then the color and number of the cells were judged using scores. Cells cultured without addition of both Compound 1 and 4-n-butyl resorcinol were used as a control, and judgment was carried out based on the following criteria: the color, score 0: the same as the control, score 1: slightly paler than the control, score 2: apparently paler than the control, score 3: cells were almost white, score 4: cells were white; the number of cells, score 0: almost all the cells were dead, score 1: nine-tenth of the cells were dead, score 2: about half the cells were dead, score 3: a few cells were dead, score 4: the number of cells was equal to that of the control. […] Such action is in good accordance with inhibitory action of Compound 1 on dendrites of melanocytes.

Normal human melanocytes = assay: Inhibitory action on elongation of dendrites; assay type: cell-based
Procedure: According to the following method, inhibitory action on elongation of dendrites was examined using human melanocytes.
(Cell) Normal human melanocytes
(Medium) Basic medium (Medium 154S) to which the following reagents were added
(Reagent) Growth additive: bovine pituitary extract (BPE) (final concentration in the medium: 0.4% v/v), fetus bovine serum (FBS) (final concentration in the medium: 0.5% v/v), human recombinant basic fibroblast growth factor (rFGF-B) (final concentration in the medium: 3 ng/ml), hydrocortisone (final concentration in the medium: 0.18 μg/ml), insulin (final concentration in the medium: 5 μg/ml), transferrin (final concentration in the medium: 5 μg/ml), phorbol 12-myristate 13-acetate (PMA) (final concentration in the medium: 10 ng/ml), heparin (final concentration in the medium: 3 μg/ml), PSA solution (mixed solution at a concentration of penicillin: 50,000 Unit/ml, a concentration of streptomycin: 50 μg/ml, and a concentration of amphotericin B: 12.5 μg/ml. Added 1 ml thereof for 500 ml of the medium.) (Test Method)
Normal human melanocytes were seeded (3,000 cells/well) into a 48-well microplate into which the above medium (198 μl/well) was poured, and cultured at 37° C. After 24 hours, Compound 1 (centaureidin) produced in Production Example 6 was dissolved in dimethyl sulfoxide (DMSO) at final concentrations in the medium of 0 mM (control), 0.1 mM, 0.5 mM, and 1 mM, to obtain sample solutions. To 1 μl of each of those sample solutions, 9 μl of the medium were added. 2 μl of each solution were added into each well of the microplate and culture was continued. After 24 hours from addition of the samples, the length of dendrites was observed.
In the same manner as in Test Example 1, but using extracts produced in Production Examples 1 to 5, sample solutions were prepared so that the final concentration of Compound 1 (centaureidin) in the medium was 0.5 mM, to thereby examine inhibitory action on elongation of dendrites.
In the same manner as in Test Example 1, Compounds 2 to 4 were further examined for inhibitory action on elongation of dendrites under the condition that the final concentration in the medium was 0.5 mM.

[1] = centaureidin 0 mM, 4-n-butyl resorcinol 0.01 % by mass
[2] = centaureidin 0 mM, 4-n-butyl resorcinol 0.1 % by mass
[3] = centaureidin 0 mM, 4-n-butyl resorcinol 0.5 % by mass
[4] = normal human melanocytes, 24 hours
[5] = centaureidin 0.1 mM, 4-n-butyl resorcinol 0 % by mass
[6] = centaureidin 0.5 mM, 4-n-butyl resorcinol 0 % by mass
[7] = Compounds 2 to 4, final concentration in the medium 0.5 mM, 24 hours

## CCCCc1ccc(O)cc1O [4-n-butyl resorcinol]
Melanoma B-16 cells; [1]
  Color of cells: score 1
  Number of cells: score 3
Melanoma B-16 cells; [2]
  Color of cells: score 3
  Number of cells: score 2
Melanoma B-16 cells; [3]
  Color of cells: score 4
  Number of cells: score 1

## COc1ccc(-c2oc3cc(O)c(OC)c(O)c3c(=O)c2OC)cc1O [Compound 1, 5,7-dihydroxy-3,6-dimethoxy-2-(5-hydroxy-4-methoxyphenyl)-4H-1-benzopyran-4-one]
Normal human melanocytes; centaureidin 0.1 mM final concentration in medium, 24 hours after addition, control (0 mM) 140 ± 29
  Length of dendrite: 101 ± 15 μm
Normal human melanocytes; centaureidin 0.5 mM final concentration in medium, 24 hours after addition, control (0 mM) 140 ± 29
  Length of dendrite: 26 ± 8 μm
Normal human melanocytes; centaureidin 1 mM final concentration in medium, 24 hours after addition, control (0 mM) 140 ± 29
  Length of dendrite: 24 ± 6 μm
Normal human melanocytes; [4]
  Concentration at which inhibitory action on elongation of dendrites can be confirmed: at least 0.1 mM
  Concentration at which inhibitory action on elongation of dendrites is particularly remarkable: ≥ 0.5 mM
Normal human melanocytes; normal human melanocytes, 24 hours after addition
  Inhibitory action on elongation of dendrites (in words): elongation of dendrites is inhibited
Melanoma B-16 cells; [5]
  Color of cells: score 1
  Number of cells: score 3
Melanoma B-16 cells; [6]
  Color of cells: score 1
  Number of cells: score 3
Melanoma B-16 cells; melanoma B-16 cells cultured with 4-n-butyl resorcinol
  Effect on cell death (in words): inhibits cell death

## COc1c(O)c(OC)c2oc(-c3cc(O)c(O)c(O)c3)c(OC)c(=O)c2c1O [Compound 2, 5,7-dihydroxy-3,6,8-trimethoxy-2-(3,4,5-trihydroxyphenyl)-4H-1-benzopyran-4-one]
Normal human melanocytes; [7]
  Length of dendrite: 34 ± 19 μm

## CCOc1cc(-c2oc3cc(OC)c(OC)c(OCC)c3c(=O)c2OCC)ccc1OC [Compound 3, 3,5-diethoxy-6,7-dimethoxy-2-(5-ethoxy-4-methoxyphenyl)-4H-1-benzopyran-4-one]
Normal human melanocytes; [7]
  Length of dendrite: 47 ± 28 μm

## COc1cc(OC)c(-c2oc3cc(OC)c(O)c(O)c3c(=O)c2OC)cc1O [Compound 4, 5,6-dihydroxy-3,7-dimethoxy-2-(5-hydroxy-2,4-dimethoxyphenyl)-4H-1-benzopyran-4-one]
Normal human melanocytes; [7]
  Length of dendrite: 31 ± 22 μm
